Measured values from paper PMC9186412, “Rational Framework for the Design of Trp- and Arg-Rich Peptide Antibiotics Against Multidrug-Resistant Bacteria” (Frontiers in Microbiology, 2022).
Converted amounts (≈) assume the structure as drawn. Like-named read-outs stand apart in the source and are kept apart here. Where a SMILES comes first, the peptide text is derived from it. Bridges are numbered along the chain shown (N, C = ends). [ ]: non-standard residue; d: D form. The star is where a group is joined. X1 = CC[C@H](C)CCCCC(=O)*; Dab = NCC[C@H](N)C(=O)O

What was measured:
[1] = system: A. baumannii; assay: microbe, parasite or virus in culture; type: cell-based, Acinetobacter baumannii
Method: (§1) Bacterial clinical isolates, used for initial screening and in previous studies ([Deslouches et al., 2013]; [Lin et al., 2018]), were anonymously provided by the clinical microbiology laboratory of the University of Pittsburgh medical Center. The panel used for secondary screening was from [CDC (2013)] (Supplementary Table 3), with resistance profiles data. Bacteria are stored in lock-secured –80°C freezer and typically retrieved by obtaining single colonies on agar plates prior for subsequent liquid broth cultures. Suspensions of test bacteria were prepared from log phase of growth by diluting overnight cultures at 1:100 with fresh cation-adjusted MHB (MHB2, Millipore Sigma, United States) and incubating for additional 3–4 h. Bacteria were spun at 3,000 × g for 10 min and the pellet resuspended in test condition media (Millipore Sigma, United States) to determine bacterial turbidity using a Den-1B densitometer (Grant Instruments, United States) at 0.5 McFarland (unit of bacterial density) corresponding to […].
(§2) To examine antibacterial activity, we used minor modifications of a standard growth inhibition assay endorsed by the Clinical and Laboratory Standards Institute (CLSI), as previously described ([Deslouches et al., 2013]). Bacteria were incubated with each of the indicated peptides in MHB2. The bacterial cells were kept in an incubator for 18 h at 37°C, which is linked to a robotic system that feeds a plate reader every hour with one of 8 × 96-well plates. This set-up allows the collection of growth kinetic data at A 570 (absorbance at 570 nm) to examine growth inhibition in real time (BioTek Instruments, United States). […] The assays are typically repeated a second time. If the MIC is different, a third experimental trial is performed to confirm the MIC. To assess bactericidal properties of the peptide, the assay was modified by using 15% fetal bovine serum (FBS, for a more physiologically relevant test condition) mixed with 25% MHB2 and 60% PBS. Bacterial cells (colony forming unit/mL or CFU/mL) were enumerated after incubating treated bacteria for 3 h and plating serially diluted samples on broth agar medium at 37°C overnight. Minimum bactericidal concentration (MBC) was determined as the peptide concentration at which complete bacterial killing was observed. […] Data were analyzed using GraphPad Prism software.

[2] = system: E. coli; assay: microbe, parasite or virus in culture; type: cell-based, Escherichia coli
Method: as §1, §2

[3] = system: Enterobacter spp; assay: microbe, parasite or virus in culture; type: cell-based, Enterobacter spp (aerogenes, cloacae)
Method: as §1, §2

[4] = system: K. pneumoniae; assay: microbe, parasite or virus in culture; type: cell-based, Klebsiella pneumoniae
Method: as §1, §2

[5] = system: P. aeruginosa; assay: microbe, parasite or virus in culture; type: cell-based, Pseudomonas aeruginosa
Method: as §1, §2

[6] = system: S. aureus; assay: microbe, parasite or virus in culture; type: cell-based
Method: as §1, §2

[7] = system: ESKAPE pathogens and Escherichia coli; conditions: initial test strains; MHB2
Method: Bacteria were incubated with each of the indicated peptides in MHB2. […] To assess bactericidal properties of the peptide, the assay was modified by using 15% fetal bovine serum (FBS, for a more physiologically relevant test condition) mixed with 25% MHB2 and 60% PBS. […] Data were analyzed using GraphPad Prism software.

[8] = system: CDC AR isolates; parameters: key: S (green), susceptible; I (blue), intermediate; R (red), resistant; conditions: data provided by the CDC, ref CDC, cited from earlier work
Description: Supplement Table_3.XLSX, sheet "CDC AR isolates profiles" | column: G(-) strains

`CC[C@H](C)CCCCC(=O)N[C@@H](CCN)C(=O)N[C@H](C(=O)N[C@@H](CCN)C(=O)N[C@H]1CCNC(=O)[C@H]([C@@H](C)O)NC(=O)[C@H](CCN)NC(=O)[C@H](CCN)NC(=O)[C@H](CC(C)C)NC(=O)[C@@H](CC(C)C)NC(=O)[C@H](CCN)NC1=O)[C@@H](C)O` [Colistin, reference compound] (X1-[Dab]T[Dab][Dab][Dab][dL]L[Dab][Dab]T; lactam 4-C (inferred); N-terminus assumed) gave an MIC ([1]; strain AB273, CDC clinical strain, confirmed by a second or third experimental trial) of 0.5 µM (≈ 0.585 µg/mL), an MIC ([1]; strain AB274, CDC clinical strain, confirmed by a second or third experimental trial) of 0.25 µM (≈ 0.292 µg/mL) and an MIC ([1]; strain AB275 (first line, r8), CDC clinical strain, confirmed by a second or third experimental trial) of 0.25 µM (≈ 0.292 µg/mL). For the same compound, the MIC ([1]; strain AB275 (second line, r9), CDC clinical strain, confirmed by a second or third experimental trial) was 0.5 µM (≈ 0.585 µg/mL), the MIC ([1]; strain AB-A2, UPMC clinical strain, MHB2, 18 h, 37°C, A570, confirmed by 2nd or 3rd trial) was 0.5 µM (≈ 0.585 µg/mL) and the MIC ([1]; strain AB-A3, UPMC, MHB2, 18 h, 37°C) was 0.25 µM (≈ 0.292 µg/mL). It also gave an MIC ([1]; strain AB-F8, UPMC, MHB2, 18 h, 37°C) of 0.5 µM (≈ 0.585 µg/mL), an MIC ([1]; strain AB-F9, UPMC, MHB2, 18 h, 37°C) of 0.25 µM (≈ 0.292 µg/mL) and an MIC ([2]; strain Eco541, CDC clinical strain, confirmed by a second or third experimental trial) of 1 µM (≈ 1.17 µg/mL). It also gave an MIC ([2]; strain Eco543, CDC clinical strain, confirmed by a second or third experimental trial) of 8 µM (≈ 9.36 µg/mL), an MIC ([2]; strain Eco546, CDC clinical strain, confirmed by a second or third experimental trial) of 0.25 µM (≈ 0.292 µg/mL) and an MIC ([2]; strain Eco549, CDC clinical strain, confirmed by a second or third experimental trial) of 1 µM (≈ 1.17 µg/mL). For the same compound, the MIC ([2]; strain Eco25922, MHB2, 18 h, 37°C) was 0.5 µM (≈ 0.585 µg/mL), the MIC ([2]; strain YDC107, UPMC, MHB2, 18 h, 37°C) was 0.5 µM (≈ 0.585 µg/mL) and the MIC ([2]; strain YDC337, UPMC, MHB2, 18 h, 37°C) was 0.25 µM (≈ 0.292 µg/mL). It also gave an MIC ([2]; strain YDC748, UPMC, MHB2, 18 h, 37°C) of 0.25 µM (≈ 0.292 µg/mL), an MIC ([3]; strain EA62 (aerogenes), CDC clinical strain, confirmed by a second or third experimental trial) of 2 µM (≈ 2.34 µg/mL) and an MIC ([3]; strain EA518 (aerogenes), UPMC, MHB2, 18 h, 37°C) of 0.25 µM (≈ 0.292 µg/mL). It also gave an MIC ([3]; strain EA547 (aerogenes), CDC clinical strain, confirmed by a second or third experimental trial) of 0.25 µM (≈ 0.292 µg/mL), an MIC ([3]; strain EA596 (aerogenes), UPMC, MHB2, 18 h, 37°C) of 0.25 µM (≈ 0.292 µg/mL) and an MIC ([3]; strain EC470 (cloacae), UPMC, MHB2, 18 h, 37°C) of 0.25 µM (≈ 0.292 µg/mL). For the same compound, the MIC ([3]; strain EC544 (cloacae), CDC clinical strain, confirmed by a second or third experimental trial) was 4 µM (≈ 4.68 µg/mL), the MIC ([3]; strain EC545 (cloacae), CDC clinical strain, confirmed by a second or third experimental trial) was 2 µM (≈ 2.34 µg/mL) and the MIC ([3]; strain EC560 (cloacae), UPMC, MHB2, 18 h, 37°C) was 0.25 µM (≈ 0.292 µg/mL). It also gave an MIC ([4]; colistin-resistant CDC isolate KP46, MHB2) of 4 µM (≈ 4.68 µg/mL), an MIC ([4]; colistin-resistant CDC isolate KP87, MHB2) of over 16 µM and an MIC ([4]; colistin-resistant CDC isolate KP125, MHB2) of 8 µM (≈ 9.36 µg/mL). For the same compound, the MIC ([4]; colistin-resistant CDC isolate KP507, MHB2) was 16 µM (≈ 18.7 µg/mL), the MIC ([4]; colistin-resistant CDC isolate KP1010, MHB2) was 16 µM (≈ 18.7 µg/mL) and the MIC ([4]; colistin-resistant CDC isolate KP1041, MHB2) was over 16 µM. For the same compound, the MIC ([4]; colistin-resistant CDC isolate KP1045, MHB2) was over 16 µM, the MIC ([4]; strain KP542, CDC clinical strain, confirmed by a second or third experimental trial) was over 16 µM and the MIC ([4]; strain KP548, CDC clinical strain, confirmed by a second or third experimental trial) was 0.25 µM (≈ 0.292 µg/mL). The MIC ([4]; strain KP550, CDC clinical strain, confirmed by a second or third experimental trial) was 0.25 µM (≈ 0.292 µg/mL), the MIC ([4]; strain KP552, CDC clinical strain, confirmed by a second or third experimental trial) was 0.25 µM (≈ 0.292 µg/mL) and the MIC ([4]; strain KPA5 (colistin-resistant), UPMC, MHB2, 18 h, 37°C) was over 16 µM. For the same compound, the MIC ([4]; strain KPB3, UPMC, MHB2, 18 h, 37°C) was 0.25 µM (≈ 0.292 µg/mL), the MIC ([4]; strain KPC3, UPMC, MHB2, 18 h, 37°C) was 0.25 µM (≈ 0.292 µg/mL) and the MIC ([5]; strain PA01, MHB2, 18 h, 37°C) was 0.5 µM (≈ 0.585 µg/mL). The MIC ([5]; strain PA14, MHB2, 18 h, 37°C) was 0.25 µM (≈ 0.292 µg/mL), the MIC ([5]; strain PA97-5, UPMC, MHB2, 18 h, 37°C) was 0.25 µM (≈ 0.292 µg/mL) and the MIC ([5]; strain PA129-5, UPMC, MHB2, 18 h, 37°C) was 0.5 µM (≈ 0.585 µg/mL). For the same compound, the MIC ([5]; strain PA216, CDC clinical strain, confirmed by a second or third experimental trial) was 0.5 µM (≈ 0.585 µg/mL), the MIC ([5]; strain PA229, CDC clinical strain, confirmed by a second or third experimental trial) was over 16 µM and the MIC ([5]; strain PA230, CDC clinical strain, confirmed by a second or third experimental trial) was 0.5 µM (≈ 0.585 µg/mL). It also gave an MIC ([5]; strain PA231, CDC clinical strain, confirmed by a second or third experimental trial) of 1 µM (≈ 1.17 µg/mL), an MIC ([6]; strain SA461, CDC clinical strain, confirmed by a second or third experimental trial) of over 16 µM and an MIC ([6]; strain SA462, CDC clinical strain, confirmed by a second or third experimental trial) of over 16 µM. For the same compound, the MIC ([6]; strain SA463, CDC clinical strain, confirmed by a second or third experimental trial) was over 16 µM, the MIC ([6]; strain SA561, CDC clinical strain, confirmed by a second or third experimental trial) was over 16 µM and the MIC ([6]; strain SA12212, UPMC, MHB2, 18 h, 37°C) was over 16 µM. For the same compound, the MIC ([6]; strain SA18710, UPMC, MHB2, 18 h, 37°C) was over 16 µM, the MIC ([6]; strain SA49775, MHB2, 18 h, 37°C) was over 16 µM and the MIC ([6]; strain SA-US300, MHB2, 18 h, 37°C) was over 16 µM. The “activity against the GPB strains” value [7] was “inactive”, the Antibiotic susceptibility profile ([8]; Acinetobacter baumannii AB273, CDC AR isolate) was “S” and the Antibiotic susceptibility profile ([8]; Acinetobacter baumannii AB274, CDC AR isolate) was “S”. The Antibiotic susceptibility profile ([8]; Acinetobacter baumannii AB275, CDC AR isolate) was “S”, the Antibiotic susceptibility profile ([8]; Acinetobacter baumannii AB276, CDC AR isolate) was “S” and the Antibiotic susceptibility profile ([8]; Enterobacter cloacae E62, CDC AR isolate) was “S”. For the same compound, the Antibiotic susceptibility profile ([8]; Enterobacter cloacae E546, CDC AR isolate) was “R”, the Antibiotic susceptibility profile ([8]; Klebsiella pneumoniae KP542, CDC AR isolate) was “I” and the Antibiotic susceptibility profile ([8]; Klebsiella pneumoniae KP548, CDC AR isolate) was “R”. For the same compound, the Antibiotic susceptibility profile ([8]; Klebsiella pneumoniae KP550, CDC AR isolate) was “R”, the Antibiotic susceptibility profile ([8]; Klebsiella pneumoniae KP552, CDC AR isolate) was “R” and the Antibiotic susceptibility profile ([8]; Pseudomonas aeruginosa PA229, CDC AR isolate) was “S”. For the same compound, the Antibiotic susceptibility profile ([8]; Pseudomonas aeruginosa PA230, CDC AR isolate) was “S”, the Antibiotic susceptibility profile ([8]; Pseudomonas aeruginosa PA231, CDC AR isolate) was “S” and the Antibiotic susceptibility profile ([8]; Pseudomonas aeruginosa PA232, CDC AR isolate) was “S”. For the same compound, the Antibiotic susceptibility profile ([8]; Pseudomonas aeruginosa PA239, CDC AR isolate) was “R”.
